Measured values published in patent US12291528B2, “Crystalline imidazo[4,5-b]pyridine compound, pharmaceutical compositions, and their use in treating medical conditions” (Genzyme Corporation, priority 2021, dated 2025).
Like-named read-outs stand apart in the source and are kept apart here.

Assays:
[1] = Comparison of stability: temperature of dehydration; format: physicochemical
Excerpt: Stability of crystalline 3-(3-methoxy-4-((4-methoxybenzyl)oxy)benzyl)-6-(1-methyl-1H-pyrazol-4-yl)-3H-imidazo[4,5-b]pyridin-2-amine monohydrate Form 3 was compared to crystalline 3-(3-methoxy-4-((4-methoxybenzyl)oxy)benzyl)-6-(1-methyl-1H-pyrazol-4-yl)-3H-imidazo[4,5-b]pyridin-2-amine monohydrate Form 1. The physical property analyzed was temperature of dehydration. Crystalline 3-(3-methoxy-4-((4-methoxybenzyl)oxy)benzyl)-6-(1-methyl-1H-pyrazol-4-yl)-3H-imidazo[4,5-b]pyridin-2-amine monohydrate Form 1 is that described in international patent application publication WO 2016/100677.

[2] = Knee joint concentration and knee/plasma ratio after intra-articular administration to rats; format: in vivo, Sprague Dawley rats; conditions: for knee concentration of compound (in words): 0.1 mg dose, 672 hours, majority of animals
Description: (§1) Male rats were administered one of the following Test Articles via intra-articular administration to the left knee joint and thereafter pharmacokinetic properties were monitored: crystalline 3-(3-methoxy-4-((4-methoxybenzyl)oxy)benzyl)-6-(1-methyl-1H-pyrazol-4-yl)-3H-imidazo[4,5-b]pyridin-2-amine monohydrate Form 3 (“Form 3 Compound”) or crystalline 3-(3-methoxy-4-((4-methoxybenzyl)oxy)benzyl)-6-(1-methyl-1H-pyrazol-4-yl)-3H-imidazo[4,5-b]pyridin-2-amine monohydrate Form 1 (“Form 1 Compound”).
(§2) Male Sprague Dawley rats were allocated into four groups, where each group contained 12 rats having a weight in the range of 250 g to 300 g and an age of 7 to 9 weeks. Test Article was administered in the form of a suspension via intra-articular injection to the left knee joint of the rats according to the experimental design set forth in Table 1 below.
(§3) Each Test Article contained the specified methoxy-4-((4-methoxybenzyl)oxy)benzyl)-6-(1-methyl-1H-pyrazol-4-yl)-3H-imidazo[4,5-b]pyridin-2-amine monohydrate compound suspended in vehicle. Vehicle was […], 4.5% sorbitol, in aqueous phosphate buffer at pH 7.4. Each Test Article in the form of a suspension contained 20 mg/mL methoxy-4-((4-methoxy-benzyl)oxy)benzyl)-6-(1-methyl-1H-pyrazol-4-yl)-3H-imidazo[4,5-b]pyridin-2-amine monohydrate in the specified crystalline form.
The left knee joint (without injuring the articular capsule) of the rats together with 5-10 mm of both tibia and femur was collected from the first 6 animals/group after sacrifice at the last blood collection time point at approximately 672 hours postdose. The harvested knee joint was weighed. The left knee joint (without injuring the articular capsule) of the rats together with 5-10 mm of both tibia and femur was collected from the second 6 animals/group after sacrifice at the last blood collection time point at approximately 1344 hours postdose. The harvested knee joint was weighed. Tissue samples were maintained on dry ice prior to storage at −60 to −80° C. The knee joint samples were pulverized, then extracted with acetonitrile/water to provide a solution that was analyzed by using liquid chromatograph-mass spectrometry to determine the amount of the compound methoxy-4-((4-methoxybenzyl)oxy)benzyl)-6-(1-methyl-1H-pyrazol-4-yl)-3H-imidazo[4,5-b]pyridin-2-amine.

[3] = Pharmacokinetic parameters in plasma after intra-articular administration to rats; format: in vivo, Sprague Dawley rats; conditions: for Tmax / AUC(0-t) / AUC0-inf / Cmax / AUC0-672 / AUC0-1344 / Ratio Result from Compound Form 3/Compound Form 1: AUC0-672 / Ratio Result from Compound Form 3/Compound Form 1: AUC0-1344 / Ratio Result from Compound Form 3/Compound Form 1: AUC0-inf / Ratio Result from Compound Form 3/Compound Form 1: Cmax: plasma; for Tmax / AUC(0-t) / AUC0-inf / Cmax / AUC0-672 / AUC0-1344: male rat; for Tmax: range printed in row below; for AUC(0-t) / AUC0-inf / Cmax / AUC0-672 / AUC0-1344: mean
Description: as §1, §2, §3
Blood samples were collected from the jugular vein of the rats via syringe and needle and transferred into tubes containing K3EDTA. Blood samples were collected from the first six animals/group at 2 minutes, 10 minutes, 1 hr, 4 hr, 12 hr, 72 hr, 336 hr, and 672 hr after administration of Test Article. Blood samples were collected from the second six animals/group at 5 minutes, 0.5 hr, 2 hr, 8 hr, 24 hr, 168 hr, 1008 hr, and 1344 hr after administration of Test Article. Following centrifugation of the blood samples, plasma was cooled using dry ice until it was subjected to analytical analysis using liquid chromatograph-mass spectrometry to determine the amount of the compound methoxy-4-((4-methoxybenzyl)oxy)benzyl)-6-(1-methyl-1H-pyrazol-4-yl)-3H-imidazo[4,5-b]pyridin-2-amine.

[4] = Dialysis dissolution in simulated intra-articular fluid; format: physicochemical; conditions: for average release rate: at the 7 day time point, PBS pH 7.4 with BSA, 37° C.; for average release rate / one-half dissolution time: listed as crystalline 3-(3-methoxy-4-(4-methoxybenzyl)oxy)benzyl)-6-(1-methyl-1H-pyrazol-, monohydrate; for one-half dissolution time: dialysis bag, BSA/sodium hyaluronate in PBS pH 7.4, 37° C., 20 RPM
Description: Dialysis dissolution of the following Test Compositions in simulated intra-articular fluid was analyzed: • Crystalline 3-(3-methoxy-4-((4-methoxybenzyl)oxy)benzyl)-6-(1-methyl-1H-pyrazol-4-yl)-3H-imidazo[4,5-b]pyridin-2-amine Monohydrate Form 3, and • Crystalline 3-(3-methoxy-4-((4-methoxybenzyl)oxy)benzyl)-6-(1-methyl-1H-pyrazol-4-yl)-3H-imidazo[4,5-b]pyridin-2-amine Monohydrate Form 1.
Procedurally, Test Composition was placed into a dialysis bag along with Medium A. The dialysis bag was then closed and placed into a closed bottle containing Medium B. Medium A and B were preheated to 37° C. before use in the experiment. The closed bottles were placed into a rotating mixer system operating at 20 RPM so as to avoid suspension sedimentation inside the dialysis bag. An aliquot of Medium B from the bottle was removed at the following time points and analyzed by high-performance liquid chromatography with UV detection to determine the amount of 3-(3-methoxy-4-((4-methoxybenzyl)oxy)benzyl)-6-(1-methyl-1H-pyrazol-4-yl)-3H-imidazo[4,5-b]pyridin-2-amine in Medium B due to dialysis dissolution of the Test Composition from Medium A through the dialysis bag to Medium B: 3 hr, 6 hr, 24 hr, 29 hr, 48 hr, 72 hr, 144 hr, 168 hr, 192 hr, 216 hr, and 240 hr. One Test Composition was analyzed at the 360 hour timepoint. Medium A was bovine serum albumin (BSA) at 40 g/L (+0.2 g/L sodium azide), sodium hyaluronate at 3 g/L in reconstituted phosphate buffer saline pH 7.4. Medium B was bovine serum albumin (BSA) at 40 g/L (+0.2 g/L sodium azide) in reconstituted phosphate buffer saline pH 7.4.

Dynamic vapor sorption = format: physicochemical; conditions: 25° C., 2 cycles of increasing and decreasing relative humidity, steps of 5% RH
Description: A dynamic vapor sorption isotherm plot of crystalline 3-(3-methoxy-4-((4-methoxybenzyl)oxy)benzyl)-6-(1-methyl-1H-pyrazol-4-yl)-3H-imidazo[4,5-b]pyridin-2-amine monohydrate Form 3 is provided in FIG. 3. The dynamic vapor sorption isotherm plot results are from the procedure where after a drying stage at 0% relative humidity, compound sample was exposed to 2 cycles of increasing and decreasing relative humidity at 25° C., with steps of 5% relative humidity, where mass of the sample was recorded throughout the experiment.

[5] = 0.1 mg/knee, 672 hr, monohydrate
[6] = 1 mg/knee, 1344 hr, monohydrate
[7] = 0.1 mg/knee intra-articular, monohydrate
[8] = 1 mg/knee intra-articular, monohydrate

For `COc1ccc(COc2ccc(Cn3c(N)nc4cc(-c5cnn(C)c5)cnc43)cc2OC)cc1` [Form 1 Compound, 3-(3-methoxy-4-((4-methoxybenzyl)oxy)benzyl)-6-(1-methyl-1H-pyrazol-4-yl)-3H-imidazo[4,5-b]pyridin-2-amine monohydrate, reference compound], the dehydration behaviour ([1]; room temperature, stream of nitrogen gas) was “undergo dehydration at room temperature”, the “knee concentration of compound (in words)” value ([2]; monohydrate) was “below the limit of quantification in the majority of animals” and the “Mean Knee Concentration of Compound” value [2, 5] was 852 ng/g. The “Mean Knee/Plasma Concentration Ratio” value [2, 5] was 58800, the “Mean Knee Concentration of Compound” value ([2]; 0.1 mg/knee, 1344 hr, monohydrate) was “<LLOQ” and the “Mean Knee Concentration of Compound” value ([2]; 1 mg/knee, 672 hr, monohydrate) was 37400 ng/g. The “Mean Knee/Plasma Concentration Ratio” value ([2]; 1 mg/knee, 672 hr, monohydrate) was 22100, the “Mean Knee Concentration of Compound” value [2, 6] was 4560 ng/g and the “Mean Knee/Plasma Concentration Ratio” value [2, 6] was 19000. It also gave a Tmax ([3]; Sprague Dawley, 0.1 mg/knee intra-articular) of 4 h, an AUC(0-t) ([3]; male, Sprague Dawley, rat, 0.1 mg, 0.1 mg/knee intra-articular, read-out: AUC0-672) of 1350 ng·h/mL and an AUC0-inf ([3]; male, Sprague Dawley, rat, 0.1 mg, 0.1 mg/knee intra-articular, read-out: AUC0-inf) of 1290 ng·h/mL. It also gave an AUC(0-t) ([3]; male, Sprague Dawley, rat, 0.1 mg, 0.1 mg/knee intra-articular, summary from second six animals, read-out: AUC0-1344) of 1330 ng·h/mL, a Cmax [3, 7] of 34.3 ng/mL and an AUC0-672 [3, 8] of 10600 ng·h/mL. For the same compound, the AUC0-inf [3, 8] was 11800 ng·h/mL, the Cmax [3, 8] was 71.6 ng/mL and the AUC0-1344 ([3]; 1 mg/knee intra-articular, summary from second six animals, monohydrate) was 11100 ng·h/mL. It also gave an average release rate [4] of 0.54 %/hr and an one-half dissolution time [4] of 66 h.

In the case of `COc1ccc(COc2ccc(Cn3c(N)nc4cc(-c5cnn(C)c5)cnc43)cc2OC)cc1` [Form 3 Compound, 3-(3-methoxy-4-((4-methoxybenzyl)oxy)benzyl)-6-(1-methyl-1H-pyrazol-4-yl)-3H-imidazo[4,5-b]pyridin-2-amine monohydrate], the “thermodynamic stability compared to monohydrate Form 1” value [1] is reported as “thermodynamically more stable”, the temperature of dehydration ([1]; heated) is reported as 130 °C and the “knee concentration of compound (in words)” value ([2]; monohydrate) is reported as “consistently higher than the concentration”. For the same compound, the “Knee concentration: Ratio of Form 3 Compound/Form 1 Compound” value ([2]; 0.1 mg/knee, 672 hr) was 5.62, the “Knee/plasma ratio: Ratio of Form 3 Compound/Form 1 Compound” value (shortened to “Knee/plasma ratio: Ratio”) ([2]; 0.1 mg/knee, 672 hr) was 0.733 and the “Mean Knee Concentration of Compound” value [2, 5] was 4790 ng/g. For the same compound, the “Mean Knee/Plasma Concentration Ratio” value [2, 5] was 43100, the “Mean Knee/Plasma Concentration Ratio” value ([2]; 0.1 mg/knee, 1344 hr) was 77400 and the “Knee concentration: Ratio of Form 3 Compound/Form 1 Compound” value ([2]; 1 mg/knee, 672 hr) was 5.40. The “Knee/plasma ratio: Ratio” value ([2]; 1 mg/knee, 672 hr) was 2.64, the “Mean Knee Concentration of Compound” value ([2]; 1 mg/knee, 672 hr, monohydrate) was 202000 ng/g and the “Mean Knee/Plasma Concentration Ratio” value ([2]; 1 mg/knee, 672 hr, monohydrate) was 58300. The “Knee concentration: Ratio of Form 3 Compound/Form 1 Compound” value ([2]; 1 mg/knee, 1344 hr) was 13.6, the “Knee/plasma ratio: Ratio” value ([2]; 1 mg/knee, 1344 hr) was 1.96 and the “Mean Knee Concentration of Compound” value [2, 6] was 62200 ng/g. For the same compound, the “Mean Knee/Plasma Concentration Ratio” value [2, 6] was 37200, the concentration at 1344 hr ([2]; male, Sprague Dawley, rat, knee joint, other: intra-articular injection to the left knee joint, 0.1 mg/knee, 1344 hr, read-out: Mean Knee Concentration of Compound) was 383 ng/g and the Tmax ([3]; Sprague Dawley, 1 mg/knee intra-articular) was 4 h. The “absorption compared to Form 1 Compound” value ([3]; intra-articular, rat) was “slower and more prolonged”, the AUC0-inf ([3]; male, Sprague Dawley, rat, 1 mg, 1 mg/knee intra-articular, read-out: AUC0-inf) was 8040 ng·h/mL and the Cmax ([3]; male, Sprague Dawley, rat, 1 mg, 1 mg/knee intra-articular, read-out: Cmax) was 52.1 ng/mL. The AUC(0-t) ([3]; male, Sprague Dawley, rat, 1 mg, 1 mg/knee intra-articular, summary from second six animals, read-out: AUC0-1344) was 7100 ng·h/mL, the “Ratio Result from Compound Form 3/Compound Form 1: AUC0-672” value ([3]; 0.1 mg/knee) was 0.508 and the “Ratio Result from Compound Form 3/Compound Form 1: AUC0-1344” value ([3]; 0.1 mg/knee) was 0.611. For the same compound, the “Ratio Result from Compound Form 3/Compound Form 1: AUC0-inf” value ([3]; 0.1 mg/knee) was 0.587, the “Ratio Result from Compound Form 3/Compound Form 1: Cmax” value ([3]; 0.1 mg/knee) was 0.332 and the “Ratio Result from Compound Form 3/Compound Form 1: AUC0-672” value ([3]; 1 mg/knee) was 0.494. For the same compound, the “Ratio Result from Compound Form 3/Compound Form 1: AUC0-1344” value ([3]; 1 mg/knee) was 0.640, the “Ratio Result from Compound Form 3/Compound Form 1: AUC0-inf” value ([3]; 1 mg/knee) was 0.681 and the “Ratio Result from Compound Form 3/Compound Form 1: Cmax” value ([3]; 1 mg/knee) was 0.728. It also gave an AUC0-672 [3, 7] of 686 ng·h/mL, an AUC0-inf [3, 7] of 757 ng·h/mL and a Cmax [3, 7] of 11.4 ng/mL. The AUC0-1344 ([3]; 0.1 mg/knee intra-articular, summary from second six animals, monohydrate) was 813 ng·h/mL, the AUC0-672 [3, 8] was 5240 ng·h/mL and the “hygroscopicity (dynamic vapor sorption isotherm)” value (Dynamic vapor sorption) was “not hygroscopic”. For the same compound, the average release rate [4] was 0.35 %/hr, the one-half dissolution time [4] was 112 h and the “dialysis dissolution rate compared to Form 1” value ([4]; simulated intra-articular fluid) was “significantly lower”.
